# Laboratory results taken from ChEMBL document CHEMBL3044915, “Synthesis and Insecticidal Activity of N-(4-Aryloxybenzyl)-pyrazolecarboxamide Derivatives” (1996).
# Experiments:
# Type in all cases: functional
# Nephotettix cincticeps [1] = assay: Insecticidal activity against green rice Nephotettix cincticeps (green rice leafhopper) third-instar larvae assessed as mortality at 12.5 ppm applied through spray measured after 4 days; details: 96 h
# Nephotettix cincticeps [2] = assay: Insecticidal activity against green rice Nephotettix cincticeps (green rice leafhopper) third-instar larvae assessed as mortality at 3.1 ppm applied through spray measured after 4 days; details: for mortality at 3.1 ppm: Nephotettix cincticeps, 96 h
# Nephotettix cincticeps [3] = assay: Insecticidal activity against green rice Nephotettix cincticeps (green rice leafhopper) third-instar larvae assessed as mortality at 50 ppm applied through spray measured after 4 days; details: 96 h
# Nephotettix cincticeps [4] = assay: Insecticidal activity against green rice Nephotettix cincticeps (green rice leafhopper) third-instar larvae assessed as mortality at 0.8 ppm applied through spray measured after 4 days; details: for mortality at 0.8 ppm: Nephotettix cincticeps, 96 h
# Nilaparvata lugens [5] = assay: Insecticidal activity against Nilaparvata lugens (brown planthopper) third-instar larvae assessed as mortality at 0.8 ppm applied through spray measured after 5 days; details: 120 h
# Myzus persicae [6] = assay: Insecticidal activity against Myzus persicae (green peach aphid) assessed as mortality at 3.1 ppm measured after 4 days; details: 96 h
# Plutella xylostella [7] = assay: Insecticidal activity against Plutella xylostella (diamondback moth) third-instar larvae in compound treated cabbage leaf assessed as mortality at 3.1 ppm measured after 4 days; details: 96 h
# Tetranychus urticae [8] = assay: Insecticidal activity against Tetranychus urticae (two-spotted spider mite) assessed as mortality at 12.5 ppm
# Myzus persicae [9] = assay: Insecticidal activity against Myzus persicae (green peach aphid) assessed as mortality at 12.5 ppm measured after 4 days; details: 96 h
# Nilaparvata lugens [10] = assay: Insecticidal activity against Nilaparvata lugens (brown planthopper) third-instar larvae assessed as mortality at 3.1 ppm applied through spray measured after 5 days; details: 120 h
# Nilaparvata lugens [11] = assay: Insecticidal activity against Nilaparvata lugens (brown planthopper) third-instar larvae assessed as mortality at 12.5 ppm applied through spray measured after 5 days; details: 120 h
# Plutella xylostella [12] = assay: Insecticidal activity against Plutella xylostella (diamondback moth) third-instar larvae in compound treated cabbage leaf assessed as mortality at 12.5 ppm measured after 4 days; details: 96 h
# Plutella xylostella [13] = assay: Insecticidal activity against Plutella xylostella (diamondback moth) third-instar larvae in compound treated cabbage leaf assessed as mortality at 0.8 ppm measured after 4 days; details: 96 h
# Tetranychus urticae [14] = assay: Insecticidal activity against Tetranychus urticae (two-spotted spider mite) assessed as mortality at 3.1 ppm
# Myzus persicae [15] = assay: Insecticidal activity against Myzus persicae (green peach aphid) assessed as mortality at 0.8 ppm measured after 4 days; details: 96 h
SMILES,mortality at 12.5 ppm (Nephotettix cincticeps [1]),mortality at 3.1 ppm (Nephotettix cincticeps [2]),mortality at 50 ppm (Nephotettix cincticeps [3]),further results
CCc1nn(C)c(C(=O)NCc2ccc(Oc3ccc(C(F)(F)F)cc3)cc2)c1Cl,100%,30%,100%,–
Cn1nc2c(c1C(=O)NCc1ccc(Oc3ccc(C(F)(F)F)cc3)cc1)CCCC2,80%,80%,100%,mortality at 0.8 ppm (Nephotettix cincticeps [4]): 0%
"CC1CCc2c1nn(C)c2C(=O)NCc1ccc(Oc2ccc(C(F)(F)F)cc2)cc1 (single isomer, unassigned; (-))",100%,–,100%,mortality (Nephotettix cincticeps [4]): 80%; mortality (Nephotettix cincticeps [2]): 100%
CC(C)c1nn(C)c(C(=O)NCc2ccc(Oc3ccc(C(F)(F)F)cc3)cc2)c1Cl,80%,30%,80%,–
CCc1nn(C)c(C(=O)NCc2ccc(Oc3ccc(C(F)F)cc3)cc2)c1Cl,100%,100%,100%,–
CC1CCc2c1nn(C)c2C(=O)NC(C)(C)c1ccc(Oc2ccc(C(F)(F)F)cc2)cc1 (centres undefined),–,–,0%,–
CC1CCc2c1nn(C)c2C(=O)NCc1ccc(Oc2ccc([N+](=O)[O-])cc2)cc1 (centres undefined),100%,100%,–,mortality at 0.8 ppm (Nilaparvata lugens [5]): 0%; mortality at 3.1 ppm (Myzus persicae [6]): 100%; mortality at 3.1 ppm (Plutella xylostella [7]): 100%; mortality at 12.5 ppm (Tetranychus urticae [8]): 80%; mortality at 12.5 ppm (Myzus persicae [9]): 100%; mortality at 0.8 ppm (Nephotettix cincticeps [4]): 30%; mortality at 3.1 ppm (Nilaparvata lugens [10]): 80%; mortality at 12.5 ppm (Nilaparvata lugens [11]): 80%; mortality at 12.5 ppm (Plutella xylostella [12]): 100%; mortality at 0.8 ppm (Plutella xylostella [13]): 0%; mortality at 3.1 ppm (Tetranychus urticae [14]): 30%; mortality at 0.8 ppm (Myzus persicae [15]): 30%
CCc1nn(C)c(C(=O)NCc2ccc(Oc3ccc(OCC(F)(F)F)cc3)cc2)c1Cl,30%,–,100%,–
CCSc1ccc(Oc2ccc(CNC(=O)c3c(Cl)c(CC)nn3C)cc2)cc1,80%,30%,100%,–
Cc1nn(C)c(C(=O)NCc2ccc(Oc3ccc(C(F)(F)F)cc3)cc2)c1Cl,80%,80%,100%,mortality at 0.8 ppm (Nephotettix cincticeps [4]): 30%
CCc1nn(C)c(C(=O)NCc2ccc(Oc3ccc(SC)cc3)cc2)c1Cl,100%,80%,100%,–
CCc1nn(C)c(C(=O)NCc2ccc(Oc3ccc(OC(F)F)cc3)cc2)c1Cl,100%,80%,100%,–
CC1CCc2c1nn(C)c2C(=O)NCc1ccc(C(C)(C)C)cc1 (centres undefined),30%,–,–,mortality at 12.5 ppm (Tetranychus urticae [8]): 100%; mortality at 12.5 ppm (Myzus persicae [9]): 0%; mortality at 12.5 ppm (Nilaparvata lugens [11]): 0%; mortality at 12.5 ppm (Plutella xylostella [12]): 0%; mortality at 3.1 ppm (Tetranychus urticae [14]): 100%
CCc1nn(C)c(C(=O)NCc2ccc(Oc3ccc(C(F)(F)F)cc3)cc2)c1Br,100%,30%,100%,mortality at 0.8 ppm (Nephotettix cincticeps [4]): 30%
"CC1CCc2c1nn(C)c2C(=O)NC(C)c1ccc(Oc2ccc(C(F)(F)F)cc2)cc1 (single isomer, unassigned; diastereomer 2)",100%,80%,100%,mortality at 0.8 ppm (Nephotettix cincticeps [4]): 0%
CCC1CCc2c1nn(C)c2C(=O)NCc1ccc(Oc2ccc(C(F)(F)F)cc2)cc1 (centres undefined),100%,30%,100%,mortality at 0.8 ppm (Nephotettix cincticeps [4]): 0%
CCc1nn(C)c(C(=O)NCc2ccc(Oc3ccc(CC(C)C)cc3)cc2)c1Cl,–,–,0%,–
CC1CCCc2c1nn(C)c2C(=O)NCc1ccc(Oc2ccc(C(F)(F)F)cc2)cc1 (centres undefined),100%,0%,100%,mortality at 0.8 ppm (Nephotettix cincticeps [4]): 0%
CCc1nn(C)c(C(=O)NCc2ccc(Oc3ccc(OC)cc3)cc2)c1Cl,100%,30%,100%,–
CCc1nn(C)c(C(=O)NCc2ccc(Oc3ccc(Cl)cc3)cc2)c1Cl,80%,80%,100%,–

SMILES,mortality at 12.5 ppm (Nephotettix cincticeps [1]),mortality at 3.1 ppm (Nephotettix cincticeps [2]),mortality at 50 ppm (Nephotettix cincticeps [3]),further results
CCc1nn(C)c(C(=O)NCc2ccc(Oc3ccc(SC(C)C)cc3)cc2)c1Cl,30%,30%,100%,–
CSc1ccc(Oc2ccc(CNC(=O)c3c4c(nn3C)C(C)CC4)cc2)cc1 (centres undefined),100%,80%,–,mortality at 0.8 ppm (Nilaparvata lugens [5]): 30%; mortality at 3.1 ppm (Myzus persicae [6]): 100%; mortality at 3.1 ppm (Plutella xylostella [7]): 80%; mortality at 12.5 ppm (Tetranychus urticae [8]): 100%; mortality at 12.5 ppm (Myzus persicae [9]): 100%; mortality at 0.8 ppm (Nephotettix cincticeps [4]): 30%; mortality at 3.1 ppm (Nilaparvata lugens [10]): 30%; mortality at 12.5 ppm (Nilaparvata lugens [11]): 80%; mortality at 12.5 ppm (Plutella xylostella [12]): 100%; mortality at 0.8 ppm (Plutella xylostella [13]): 0%; mortality at 3.1 ppm (Tetranychus urticae [14]): 80%; mortality at 0.8 ppm (Myzus persicae [15]): 0%
CCc1nn(C)c(C(=O)NCc2ccc(Oc3ccc(C(C)C)cc3)cc2)c1Cl,30%,–,80%,–
CCc1cc(C(=O)NCc2ccc(Oc3ccc(C(F)(F)F)cc3)cc2)n(C)n1,100%,30%,100%,–
CCc1nn(C)c(C(=O)NCc2ccc(Oc3ccccc3)cc2)c1Cl,30%,–,100%,–
CCc1nn(C)c(C(=O)NCc2ccc(Oc3ccc([S+](C)[O-])cc3)cc2)c1Cl (centres undefined),100%,30%,100%,–
CCc1nn(C)c(C(=O)NCc2ccc(Oc3ccc([N+](=O)[O-])cc3)cc2)c1Cl,100%,100%,100%,–
CCc1nn(C)c(C(=O)NCc2ccc(Oc3ccc(C)cc3)cc2)c1Cl [TOLFENPYRAD],100%,30%,100%,–
CC1CCc2c1nn(C)c2C(=O)NCc1ccc(Oc2ccc(C#N)cc2)cc1 (centres undefined),30%,0%,–,mortality at 0.8 ppm (Nilaparvata lugens [5]): 80%; mortality at 3.1 ppm (Myzus persicae [6]): 80%; mortality at 3.1 ppm (Plutella xylostella [7]): 100%; mortality at 12.5 ppm (Tetranychus urticae [8]): 100%; mortality at 12.5 ppm (Myzus persicae [9]): 100%; mortality at 3.1 ppm (Nilaparvata lugens [10]): 80%; mortality at 12.5 ppm (Nilaparvata lugens [11]): 100%; mortality at 12.5 ppm (Plutella xylostella [12]): 100%; mortality at 0.8 ppm (Plutella xylostella [13]): 30%; mortality at 3.1 ppm (Tetranychus urticae [14]): 100%; mortality at 0.8 ppm (Myzus persicae [15]): 0%
CCc1nn(C)c(C(=O)NCc2ccc(Oc3ccc(OC(C)C)cc3)cc2)c1Cl,30%,0%,80%,–
CCc1nn(C)c(C(=O)NCc2ccc(C(C)(C)C)cc2)c1Cl [TEBUFENPYRAD],0%,–,–,mortality at 12.5 ppm (Tetranychus urticae [8]): 100%; mortality at 12.5 ppm (Myzus persicae [9]): 30%; mortality at 12.5 ppm (Nilaparvata lugens [11]): 0%; mortality at 12.5 ppm (Plutella xylostella [12]): 0%; mortality at 3.1 ppm (Tetranychus urticae [14]): 100%
CCc1nn(C)c(C(=O)NCc2ccc(Oc3ccc(S(C)(=O)=O)cc3)cc2)c1Cl,100%,30%,100%,–
Cn1nc2c(c1C(=O)NCc1ccc(Oc3ccc(C(F)(F)F)cc3)cc1)CCC2,100%,100%,100%,mortality at 0.8 ppm (Nephotettix cincticeps [4]): 0%
"CC1CCc2c1nn(C)c2C(=O)NCc1ccc(Oc2ccc(C(F)(F)F)cc2)cc1 (single isomer, unassigned; (+))",–,–,–,mortality (Nephotettix cincticeps [2]): 30%
CCc1nn(C)c(C(=O)NCc2ccc(Oc3ccc(C(F)(F)F)cc3)cc2)c1F,100%,30%,100%,mortality at 0.8 ppm (Nephotettix cincticeps [4]): 0%
CCc1ccc(Oc2ccc(CNC(=O)c3c(Cl)c(CC)nn3C)cc2)cc1,80%,30%,100%,–
CC1CCc2c1nn(C)c2C(=O)NCc1ccc(Oc2ccc(C(F)(F)F)cc2)cc1 (racemic),–,–,–,mortality at 0.8 ppm (Nilaparvata lugens [5]): 100%; mortality at 3.1 ppm (Myzus persicae [6]): 100%; mortality at 3.1 ppm (Plutella xylostella [7]): 80%; mortality at 12.5 ppm (Tetranychus urticae [8]): 100%; mortality at 12.5 ppm (Myzus persicae [9]): 100%; mortality (Nephotettix cincticeps [4]): 30%; mortality at 3.1 ppm (Nilaparvata lugens [10]): 100%; mortality at 12.5 ppm (Nilaparvata lugens [11]): 100%; mortality at 12.5 ppm (Plutella xylostella [12]): 100%; mortality at 0.8 ppm (Plutella xylostella [13]): 0%; mortality at 3.1 ppm (Tetranychus urticae [14]): 100%; mortality at 0.8 ppm (Myzus persicae [15]): 100%
CCc1nn(C)c(C(=O)NCc2ccc(Oc3ccc(C#N)cc3)cc2)c1Cl,100%,0%,100%,–
Cn1ncc(Cl)c1C(=O)NCc1ccc(Oc2ccc(C(F)(F)F)cc2)cc1,80%,30%,100%,–
